Source: patent US20260083767A1, “SOLID DOSAGE FORM OF A SMALL MOLECULE ANTIVIRAL AND USES THEREOF” (Merck Sharp & Dohme LLC, priority 2022, published 2026)
Like-named read-outs stand apart in the source and are kept apart here.

Experiments:
[1] = Aqueous solubility and wettability of Compound A; format: physicochemical
Source text: As the levels of Compound A increases in the formulation, the flow properties of the pre-roller compaction powder blend worsens due to the cohesive nature of the material. […] As the levels of Compound A increases in the formulation, the property of the powder blend is dominated by the properties of Compound A, resulting in poor wettability, dispersibility and uniformity in water. Accordingly, the proportion of Compound A in the formulations having desirable properties is limited.

[2] = species not stated; cited from earlier work
[3] = non-human primates; cited from earlier work

aqueous solubility [1]	wettability in aqueous media ([1]; aqueous media)	Compound	oral bioavailability [2]	oral bioavailability [3]
good	poor	CC(C)C(=O)OC[C@H]1O[C@@H](n2ccc(NO)nc2=O)[C@H](O)[C@@H]1O [Compound A, {(2R,3S,4R,5R)-3,4-dihydroxy-5-[4-(hydroxyimino)-2-oxo-3,4-dihydropyrimidin-1 (2H)-yl]oxolan-2-yl}methyl 2-methylpropanoate]	orally bioavailable	–
–	–	O=c1nc(NO)ccn1[C@@H]1O[C@H](CO)[C@@H](O)[C@H]1O [NHC, 1-((2R,3R,4S,5R)-3,4-dihydroxy-5-(hydroxymethyl)tetrahydrofuran-2-yl)-4-(hydroxyamino)pyrimidin-2 (1H)-one]	–	limited
